One series deals with Chinese hamster ovary. To be noted: 0-1000 μg/ml; cited from earlier work.
The next series deals with VEGF. The series can be described thus: Western blot of VEGF in hippocampus of mice subjected to repetitive forced swim stress. The class given is in vivo. (In general: A western blot detects proteins with antibodies after separation by electrophoresis.)
Series [1] deals with inflammation genes in the hippocampus of stressed mice. The series can be described thus: Inflammatory response and Autoimmunity PCR array (RT-PCR) on hippocampus of mice subjected to forced swimming stress. The series is classed as in vivo. From the text: Two-month-old male C57BU6J mice (The Jackson Laboratory, Bar Harbor, Me.), weighing 25-30 g were maintained on a 12-hours light/dark cycle (light on at 07:00) with ad libitum access to food and water and maintained at a regulated temperature of 25±1″C. Upon arrival mice were group-housed and acclimated for 7 days before any intervention.
Mice were randomly divided into three groups as follows: group 1 controls that were not exposed to stress (NES) and treated with vehicle (phosphate buffered saline, PBS); group 2 controls subjected to forced swimming stress (FSB) and treated with vehicle; group 3 subjected to forced swimming stress and treated with cotinine (FSA).
Cotinine ((5S)-1-methyl-5-(3-pyridyl) pyrrolidin-2-one; Sigma-Aldrich Corporation, St. Louis, Mo., USA) solutions were prepared by dissolving the powdered compound in sterile phosphate buffered saline (PBS), and vehicle (PBS). Mice were treated with vehicle or cotinine (5 mg/kg) via gavage. […] All investigators were blind to treatment groups and doses were chosen based on previously studies (Zeitlin, et al., (2012) Cotinine enhances the extinction of contextual fear memory and reduces anxiety after fear conditioning. Behav Brain Res, 228, 284-293.). Treatments were administered for 7 days before the induction of stress. For all animals, treatment continued from the onset of treatment until euthanasia.
To induce chronic stress, mice were subjected to repetitive forced swimming (FS) for six consecutive days, for six minutes each day, as described previously (Furukawa-Hibi, et al., (2011) The hydrophobic dipeptide Leu-lie inhibits immobility induced by repeated forced swimming via the induction of BDNF. Behav Brain Res. 2011 Jul. 7; 220(2):271-280). Each mouse was placed in an inescapable transparent plastic cylinder (40 centimeters (cm) high×20 cm in diameter) filled with water to a depth of 30 cm, for six minutes. Water temperature was maintained at 24-25° C. and water was changed between all trials. In all cases, following exposure, animals were retrieved, dried with a hand towel and returned to their home cages. Mice assigned to NES control group were removed from the animal housing facility and taken to the behavioral testing room during the same period of time than FS mice, but remained in their home cages during the FS period. In all experiments, no mice needed assistance to avoid drowning.
Following behavioral experimentation, euthanasia was performed via cervical dislocation under anesthesia with isofluorane (4% induction, 2% maintenance) by investigators not assigned to prior work with the mice blinded to the treatments. Whole brains were collected and immediately stored frozen at −80° C.
The hippocampi were dissected on ice and placed into RNAlater tubes (Life Technologies; Thermo Fisher Scientific, Waltham, Mass.). RNAlater is a proprietary solution which protects RNA in tissue samples from degradation to allow for analysis at a later date. RNase free conditions were created and maintained throughout the procedure by washing labware in a 0.1% DEPC solution followed by rinsing with RNase free water. Total RNA extraction and purification was performed using RNeasy Lipid Tissue Extraction Kit (Qiagen N.V., Venlon NL). Sample homogenization was performed using Kontes Pellet Pestle Cordless Motor and/or 20 gauge needle and syringe. Samples were extracted using a Qiazol/Chloroform extraction. The samples were purified on an RNeasy spin column using multiple washes. An on-column DNase incubation was performed in order to remove contaminating DNA. The entire extraction and purification step was performed twice to remove all contaminating DNA for samples ran on the neurogenesis arrays. Samples were eluted in RNase free water.
Nucleic acid quantification was performed on the RNA, to determine how many microliters of sample to add to the cDNA reaction, as the reaction requires a specific concentration of RNA to achieve optimal results. […]

[2] abbreviates: hippocampus, forced swimming stress, cotinine 5 mg/kg gavage vs stressed vehicle-treated (FSB).
Setting [3] is: stressed mouse, cotinine vs vehicle.

Results on one compound are retold here after US10307411B2, “Use of cotinine in treating or preventing neurogenesis deficits and enhancing neurogenesis” (Department of Veterans Affairs, priority 2014, dated 2019).

Experimental for VEGF: Mice pretreated with 5 mg/kg of cotinine (Cot 5) or vehicle (Veh) were exposed to repetitive 6-min forced swim (FS) daily for 6 days (a) to under continuous treatment. Following testing, mice were euthanized and the levels of VEGF and β-tubulin in the hippocampus were analyzed by Western blot. The plots represent VEGF immunoreactivity (IR) values in the hippocampus of mice. […] Mice pretreated with 5 mg/kg of cotinine (Cot 5) or vehicle (Veh) were exposed to repetitive 6-min forced swim (FS) daily for 6 days (a) to under continuous treatment or controls, not subjected to the forced swim (NES). Following resting, mice were euthanized and the levels of VEGF and β-tubulin in the hippocampus were analyzed by Western blot. The plots represent VEGF immunoreactivity (IR) values in the hippocampus of mice. […] The Western blot analysis investigated the expression of VEGF (FS mice: n=8-1O/group; NES mice: n=4-5/group). […] Brain tissues were then disrupted by sonication in cold lyses buffer (Cell Signaling Technology, Danver, Mass., USA) containing a complete protease inhibitor cocktail (Roche Molecular Biochemicals). After sonication, brain extracts were incubated on ice for 30 min and centrifuged at 20,000×g for 30 min at 4° C. Protein concentrations of supernatants were measured using the Bio-Rad protein assay (Bio-Rad, Hercules, Calif., USA). Equal amounts of protein were separated by gradient (4-20%), SOS-PAGE, then transferred to nitrocellulose membranes (BA83 0.2 μM; Bio-Rad). The membranes were blocked in TBS with 0.1% Tween 20 (TBST) containing 5% dry skim milk for 1 h. Membranes were incubated with primary antibodies in TBST overnight at 4° C. and with secondary antibodies for 1 h at room temperature (RT) in a blocking buffer. […] Images were acquired using an Odyssey Infrared Imaging System (Ll-COR Biosciences) and analyzed using the NIH Image J software. To analyze the group and treatment effects, differences between group means in the behavioral analyses were assessed using two-way analysis of variance (ANOVA) and post hoc Tukey test. […]

Consider `CN1C(=O)CC[C@H]1c1cccnc1` [cotinine, (5S)-1-methyl-5-(3-pyridyl) pyrrolidin-2-one], for which the “genotoxic effects, sister chromatid exchange (SCE)” value with Chinese hamster ovary is “no genotoxic effects”. Moreover, the “VEGF protein expression in the hippocampus vs NES mice” value with VEGF (FS mice, cotinine 5 mg/kg, compared with non-stressed mice) is listed as “not significantly different”. Further, in the series with VEGF (FS mice, cotinine 5 mg/kg, normalized to β-tubulin), the “VEGF protein expression in the hippocampus vs vehicle-treated FS mice” value is reported as “significantly higher levels of VEGF expression”. Also, the “VEGF protein expression in the absence of stress” value in the series with VEGF (non-stressed mice, cotinine vs vehicle, t=0.2910, p=0.7795) is “no changes in VEGF expression”. The “number of inflammation genes differentially expressed” value in series [1] (cut off of two-fold difference, stressed mouse treated with cotinine versus stressed mouse treated with vehicle) amounted to 10 genes. For the same compound, the “Fos expression decreased by” value in series [1] (forced swimming + cotinine compared to forced swimming + vehicle) turned out to be 2.5 fold. The “Complement component 3 (C3) decreased by” value in series [1] (forced swimming + cotinine compared to stressed mouse treated with vehicle) is recorded as 2.9 fold. Moreover, in series [1] (setting [2]), the “C3 (Complement component 3) Fold regulation comparing to FSB” value is listed as −2.89 fold, the “Ccl1 (Chemokine (C-C motif) ligand 1) Fold regulation comparing to FSB” value is 2.21 fold, the “Ccl2 (Chemokine (C-C motif) ligand 2) Fold regulation comparing to FSB” value was determined as 2.46 fold and the “Ccl3 (Chemokine (C-C motif) ligand 3) Fold regulation comparing to FSB” value is on record as −4.00 fold. Further, in series [1] (setting [2]), the “Ccr2 (Chemokine (C-C motif) receptor 2) Fold regulation comparing to FSB” value is listed as −2.87 fold; the “Ccr4 (Chemokine (C-C motif) receptor 4) Fold regulation comparing to FSB” value was determined as 2.96 fold; the “Fos (FBJ osteosarcoma oncogene) Fold regulation comparing to FSB” value was −2.55 fold; the “Nos2 (Nitric oxide synthase 2, inducible) Fold regulation comparing to FSB” value is recorded as −3.93 fold. Further, in series [1] (setting [2]), the “Tlr1 (Toll-like receptor 1) Fold regulation comparing to FSB” value is recorded as 2.32 fold and the “Tnfsf14 (Tumor necrosis factor (ligand) superfamily, member 14) Fold regulation comparing to FSB” value is 6.18 fold. In addition, the “inflammation genes analyzed that were down-regulated” value in series [1] (stressed mice treated with cotinine vs stressed vehicle, hippocampus) is 61%. In series [1] (setting [3]), the “Ccl3 change (down regulated by cotinine)” value turned out to be 2.8 fold and the “Ccr2 change (down regulated by cotinine)” value was 4.0 fold.
